Broadly, the MIC is the lowest concentration that inhibits growth of the organism. Low readings indicate greater potency, high ones weaker potency.

Molecules are shown by their SMILES. In brackets after ≈: the same amount, converted by molar mass. Several values for one entry are separate records, joined by “and”; a condition that tells them apart may be missing. Identical values can stand only once.

Assay in all cases: ≥ marks a high value that may be exact or a test limit, other limits are often not marked, values filed in µg/mL are converted to µM
Assay [1] concerns Staphylococcus aureus VRSA1.
Assay [2] has as its system Bacillus subtilis 168.
Assay [3] has as its system Staphylococcus aureus MU50.
The subject of assay [4] is Micrococcus luteus CCM 144.
Assay [5] deals with Staphylococcus aureus MR.
Assay [6] deals with Escherichia coli IFO 12734.
In assay [7] the test system is Micrococcus luteus ATCC 9341.
The test system of assay [8] is Staphylococcus aureus IFO 12732.
The subject of assay [9] is Bacillus subtilis IFO 3513.
Assay [10] has as its system Klebsiella aerogenes.
Assay [11] relates to Pseudomonas aeruginosa PAO1.
Assay [12] relates to Staphylococcus aureus KCTC 1916.
Assay [13] deals with Salmonella typhimurium KCTC 1926.
For assay [14], the system named is Escherichia coli KCTC 1682.
In assay [15] the test system is Bacillus subtilis KCTC 3068.
Assay [16] concerns Staphylococcus epidermidis KCTC 1917.
Assay [17] has as its system Pseudomonas aeruginosa KCTC 1637.
Assay [18] concerns Candida albicans.
The subject of assay [19] is Pseudomonas aeruginosa ATCC 27853.
In assay [20] the test system is Staphylococcus aureus ATCC 49476.
The test system of assay [21] is Staphylococcus aureus KCTC 1621.
The test system of assay [22] is Bacillus megaterium KCTC 1096.
The subject of assay [23] is Candida albicans KCTC 7121.
Assay [24] relates to Proteus vulgaris.
For assay [25], the system named is Trichosporon beigelii KCTC 7251.
Assay [26] relates to Fusarium oxysporum KCTC 6084.
Assay [27] concerns Aspergillus flavus KCTC 7375.
The subject of assay [28] is Bacillus subtilis KCTC 1918.

`CC[C@H](C)[C@@H]1NC(=O)[C@@H]2CSSC[C@@H]3NC(=O)[C@H](CCCCN)NC(=O)[C@H](CC(=O)O)NC(=O)[C@H](CCC(N)=O)NC(=O)[C@H](Cc4ccccc4)NC(=O)[C@H](Cc4ccccc4)NC(=O)[C@@H]4CCCN4C(=O)[C@@H](NC(=O)[C@H](Cc4ccc(O)cc4)NC(=O)[C@H](Cc4ccc(O)cc4)NC(=O)CNC(=O)CN)CSSC[C@H](NC(=O)[C@H](Cc4ccc(O)cc4)NC(=O)CNC(=O)[C@H](C)NC(=O)[C@H](CCCCN)NC(=O)[C@H](CCCN=C(N)N)NC(=O)CNC(=O)[C@H](Cc4ccccc4)NC(=O)[C@H](CO)NC(=O)[C@H](CCCN=C(N)N)NC(=O)[C@H](CSSC[C@@H](C(=O)N[C@H](C(=O)O)C(C)C)NC1=O)NC(=O)[C@H](Cc1cnc[nH]1)NC(=O)[C@H](CCCN=C(N)N)NC(=O)[C@H](Cc1cnc[nH]1)NC3=O)C(=O)NCC(=O)NCC(=O)N[C@@H](Cc1ccccc1)C(=O)N[C@@H](CC(C)C)C(=O)N[C@@H](CCCCN)C(=O)N[C@@H](CCCCN)C(=O)N[C@@H]([C@@H](C)O)C(=O)N2` [GGYYCPFFQDKCHRHCRSFGRKAGYCGGFLKKTCICV]: the minimum inhibitory concentration (MIC) in assay [1] turned out to be 7.55 µM (≈ 32 µg/mL); in assay [2], 1.5 µM (≈ 6.35 µg/mL); in assay [3], 7.55 µM (≈ 32 µg/mL); in [4], 0.75 µM (≈ 3.17 µg/mL); in assay [5], 3.78 µM (≈ 16 µg/mL).
Regarding `CC[C@H](C)[C@H](N)C(=O)N[C@@H](CC(C)C)C(=O)N1CCC[C@H]1C(=O)N[C@@H](CC(C)C)C(=O)N[C@@H](CCCCN)C(=O)N[C@@H](CC(C)C)C(=O)N1CCC[C@H]1C(=O)N[C@@H](CC(C)C)C(=O)N[C@@H](CC(C)C)C(=O)N1CCC[C@H]1C(=O)N[C@@H](CC(C)C)C(=O)N[C@@H](CCCN=C(N)N)C(=O)N[C@@H](CCCN=C(N)N)C(N)=O` [ILPLKLPLLPLRR], the minimum inhibitory concentration (MIC) in assay [6] was 16.2 µM (≈ 25 µg/mL); in assay [7], 25 µM (≈ 38.5 µg/mL); in assay [8], 2.03 µM (≈ 3.13 µg/mL); in assay [9], 4.05 µM (≈ 6.25 µg/mL).
For the compound `CC(C)C[C@H](NC(=O)[C@H](CCCCN)NC(=O)[C@H](CCCCN)NC(=O)[C@H](Cc1ccccc1)NC(=O)[C@H](Cc1ccccc1)NC(=O)[C@H](CCCCN)NC(=O)[C@H](CCCCN)NC(=O)[C@H](Cc1ccccc1)NC(=O)[C@H](CCCN=C(N)N)NC(=O)[C@@H](N)CCCCN)C(=O)N[C@@H](CCCCN)C(=O)N[C@@H](CC(N)=O)C(=O)N[C@@H](CO)C(=O)N[C@H](C(=O)N[C@@H](CCCCN)C(=O)N[C@@H](CCCCN)C(=O)N[C@@H](CCCN=C(N)N)C(=O)N[C@@H](C)C(=O)N[C@@H](CCCCN)C(=O)N[C@@H](CCCCN)C(=O)N[C@@H](Cc1ccccc1)C(=O)N[C@@H](Cc1ccccc1)C(=O)N[C@@H](CCCCN)C(=O)N[C@@H](CCCCN)C(=O)O)C(C)C` [KRFKKFFKKLKNSVKKRAKKFFKK], the MIC in assay [10] was 7.77 µM and 3.88 µM; in assay [11], 7.77 µM and 3.56 µM.
As to `CC[C@H](C)[C@H](NC(=O)[C@H](CC(C)C)NC(=O)[C@@H]1CCCN1C(=O)[C@H](Cc1c[nH]c2ccccc12)NC(=O)[C@H](CCCCN)NC(=O)[C@H](CCCCN)NC(=O)[C@@H]1CCCN1C(=O)[C@H](CCCCN)NC(=O)[C@H](CC(C)C)NC(=O)[C@@H]1CCCN1C(=O)[C@H](Cc1c[nH]c2ccccc12)NC(=O)[C@H](CCCN=C(N)N)NC(=O)[C@@H](N)CCCN=C(N)N)C(N)=O` [RRWPLKPKKWPLI], the MIC in [6] worked out at 29.1 µM (≈ 50 µg/mL); in [8], 7.28 µM (≈ 12.5 µg/mL); in [9], 7.28 µM (≈ 12.5 µg/mL).
Turning to `CC[C@H](C)[C@H](NC(=O)[C@H](CCCN=C(N)N)NC(=O)[C@H](CC(C)C)NC(=O)[C@H](CCC(N)=O)NC(=O)[C@H](CCCCN)NC(=O)[C@H](CC(C)C)NC(=O)[C@H](CC(C)C)NC(=O)[C@H](CC(C)C)NC(=O)[C@@H](NC(=O)[C@H](CCCCN)NC(=O)[C@H](CC(=O)O)NC(=O)[C@H](C)NC(=O)[C@@H](NC(=O)[C@H](CCCCN)NC(=O)[C@@H](N)CCCCN)C(C)C)C(C)C)C(=O)N[C@@H](CCSC)C(=O)N[C@@H](CCCN=C(N)N)C(=O)N[C@@H](CC(C)C)C(=O)O` [KKVADKVLLLKQLRIMRL], the MIC in [12] was 8 µM (≈ 17.3 µg/mL); in assay [13] it was not below 64 µM; in assay [14], 16 µM (≈ 34.7 µg/mL); in [15] it was 2 µM (≈ 4.33 µg/mL); in assay [16] it was not below 32 µM; in assay [17] it was not below 32 µM.
In the case of `CC[C@H](C)[C@H](NC(=O)[C@H](Cc1cnc[nH]1)NC(=O)[C@H](CCCCN)NC(=O)CNC(=O)[C@@H](NC(=O)[C@H](CO)NC(=O)[C@H](Cc1ccccc1)NC(=O)[C@H](CC(C)C)NC(=O)CNC(=O)CNC(=O)[C@@H](NC(=O)[C@@H](NC(=O)[C@H](Cc1cnc[nH]1)NC(=O)[C@H](Cc1cnc[nH]1)NC(=O)[C@@H](NC(=O)[C@@H](N)Cc1ccccc1)[C@@H](C)CC)[C@@H](C)CC)[C@@H](C)CC)C(C)C)C(=O)N[C@@H](Cc1cnc[nH]1)C(=O)N[C@@H](CO)C(=O)N[C@@H](CC(C)C)C(=O)N[C@H](C(=O)N[C@@H](Cc1cnc[nH]1)C(=O)N[C@@H](CCCN=C(N)N)C(=O)N[C@@H](CCCN=C(N)N)C(=O)N[C@@H](CCCN=C(N)N)C(=O)N[C@@H](CCCN=C(N)N)C(=O)O)[C@@H](C)CC` [FIHHIIGGLFSVGKHIHSLIHRRRR], the minimal inhibitory concentration (MIC) is 42.8 µM (≈ 128 µg/mL) in assay [18], more than 171 µM in assay [19], 5.36 µM (≈ 16 µg/mL) in assay [20] and 5.36 µM (≈ 16 µg/mL) in assay [5].
For the compound `CC[C@H](C)[C@H](NC(=O)[C@H](CCCCN)NC(=O)[C@H](CCCCN)NC(=O)[C@@H](N)Cc1c[nH]c2ccccc12)C(=O)N1CCC[C@H]1C(=O)N[C@@H](CCCCN)C(=O)N[C@@H](Cc1ccccc1)C(=O)N[C@@H](CC(C)C)C(=O)N[C@@H](Cc1cnc[nH]1)C(=O)N[C@@H](CC(C)C)C(=O)N[C@@H](C)C(=O)N[C@@H](CCCCN)C(=O)N[C@@H](CCCCN)C(=O)N[C@@H](Cc1ccccc1)C(N)=O` [WKKIPKFLHLAKKF], the minimum inhibitory concentration (MIC) in assay [21] was 3.12 µM (≈ 5.57 µg/mL); in assay [22], 1.56 µM (≈ 2.78 µg/mL); in [14] it was 12.5 µM (≈ 22.3 µg/mL); in assay [23] it was not below 200 µM; in [24], 3.12 µM (≈ 5.57 µg/mL); in [25], not below 200 µM. Also, the minimum inhibitory concentration (MIC) in [26] is not below 200 µM; in [27] it was not below 200 µM; in [28] it was 0.78 µM (≈ 1.39 µg/mL); in assay [17] it was 3.12 µM (≈ 5.57 µg/mL).
Consider `CC[C@H](C)[C@H](NC(=O)[C@H](CCCCN)NC(=O)[C@H](CCCCN)NC(=O)[C@H](Cc1ccccc1)NC(=O)[C@@H](N)Cc1c[nH]c2ccccc12)C(=O)N1CCC[C@H]1C(=O)N[C@@H](CCCCN)C(=O)N[C@@H](Cc1ccccc1)C(=O)N[C@@H](CC(C)C)C(=O)N[C@@H](Cc1cnc[nH]1)C(=O)N[C@@H](CC(C)C)C(=O)N[C@@H](C)C(=O)N[C@@H](CCCCN)C(=O)N[C@@H](CCCCN)C(=O)N[C@@H](Cc1ccccc1)C(N)=O` [WFKKIPKFLHLAKKF], for which the minimum inhibitory concentration (MIC) in assay [21] is 3.12 µM (≈ 6.03 µg/mL); in [22] it was 1.56 µM (≈ 3.01 µg/mL); in assay [14], 12.5 µM (≈ 24.1 µg/mL); in assay [23] it was not below 100 µM; in assay [24], 1.56 µM (≈ 3.01 µg/mL); in [25], not below 100 µM. For the same compound, the MIC in assay [26] is not below 100 µM; in assay [27], not below 100 µM; in [28], 0.78 µM (≈ 1.51 µg/mL); in assay [17], 1.56 µM (≈ 3.01 µg/mL).
